{"source": "patent US7485327B2", "about": "“Composition comprising Melissa leaf extract for anti-angiogenic and matrix metalloproteinase inhibitory activity” (AngioLab, Inc., priority 2001, dated 2009)", "test_system": "B16BL6 cells", "experiment": "Cancer metastasis: B16BL6 melanoma colonies in lung", "type": "in vivo, C57BL/6 male mouse", "protocol": "B16BL6 cells (5×10^4) were injected into C57BL/6 male mouse of 6 to 7 weeks old through the tail vein. After that, 0.2 ml of water or drug combinations was daily given to mice by oral administration for 3 weeks. Three weeks after injection, the mice were sacrificed and the number of tumor colonies on the surface of lungs was counted under microscope. The average number of melanoma colonies in lungs from mice of treated group was less than that from control mice.", "data": [{"smiles": "Clc1ccccc1CN1CCc2sccc2C1", "note": "[Ticlopidine, ticlopidine]", "values": [{"measurement": "Inhibition (%) of metastasis", "setting": "oral daily for 3 weeks", "value": 38, "unit": "%"}, {"measurement": "Colonies in lung", "setting": "oral daily for 3 weeks after tail vein injection of B16BL6 cells", "value": "83 ± 20"}]}]}
